According to patent publication US8557784B2, “Glycyrrhizinates of morphinan derivatives” (Standard Chem. & Pharm. Co., Ltd., priority 2011, dated 2013):
Counter-ions that a name gives are not always drawn.

Assays:
[1] = Solubility in water: water added by degrees until 0.1 g of compound fully dissolves; details: for Water quantity for dissolving 0.1 g solute: 28° C.
[2] = in words; cited from earlier work
[3] = tested on: e-NOS; assay: e-NOS expression in Wistar rat pulmonary artery (Western blot); format: cell-based; details: rat pulmonary artery incubated 2 hours with 0.01 mg/ml (10^-5 M); actin as internal control; FIG. 1
Description: The e-NOS expression of dextromethorphan glycyrrhizinate and dimemorfan glycyrrhizinate are carried out via the following procedures.
The blank control group were not added with dextromethorphan glycyrrhizinate or dimemorfan glycyrrhizinate. After incubated for 2 hours, the pulmonary artery were lysed in ice-cold homogenization buffer. The homogenates were centrifuged at 13,000 rpm for 10 minutes at 4° C. The protein concentration was determined by the method of Bradford. Samples were denatured and subjected to sodium dodecylsulfate polyacrylamide gel electrophoresis (SDS-PAGE) using a 7.5% running gel. Protein were transferred to polyvinylidene difluoride (PVDF) membrane, and the PVDF membrane was incubated successively at room temperature with 5% nonfat milk-0.1% Tween-Tris buffered saline for 1 hour, with rabbit antibodies specific for anti-eNOS for 1 hour, and with horseradish peroxidase conjugated anti-rabbit IgG antibodies (HRP-conjugated anti-rabbit IgG Ab) for 1 hour. After each incubation, the membrane was washed extensively with 0.1% Tween-Tris buffered saline. The immunoreactive bands were detected by ECL reagents.
The expressions of actins are also tested at the same time to be the internal control and are depicted in the middle panel of FIG. 1.

Row | Molecule | Solubility (28° C.) [1] | Solubility in water [2] | Water quantity for dissolving 0.1 g solute [1] | e-NOS expression [3]
1 | COc1ccc2c(c1)[C@]13CCCC[C@@H]1[C@H](C2)N(C)CC3 [Dextromethorphan hydrobromide] | 2.5% |  |  | 
2 | COc1ccc2c(c1)[C@]13CCCC[C@@H]1[C@H](C2)N(C)CC3 [dextromethorphan] |  | water insoluble |  | 
3 | Dimemorfan phosphate | 2.5% |  | 4 mL | 
4 | dextromethorphan glycyrrhizinate |  |  |  | good e-NOS expression
5 | dimemorfan glycyrrhizinate | 0.05% |  | 200 mL | good e-NOS expression
